PMC6304418, “A Novel Compound Targeting Protease Receptor 1 Activators for the Treatment of Glioblastoma” (Frontiers in Neurology, 2018)
Entries after “also recorded” stand apart in the source; their conditions may differ. Where a SMILES comes first, the peptide text is derived from it. The star is where a group is joined. Tos = Cc1ccc(S(=O)(=O)*)cc1; CH2Cl = ClC*

Columns and labels:
U87 glioma cells = assay: U87 glioma cell proliferation (XTT); assay type: cell-based, human; details: 72 h
Procedure: (§1) CNS-1, C6, and U87 rat and human glioma cells were grown in Dulbecco's modified Eagle's medium (DMEM; Bet Haemek, Biological Industries, Israel) supplemented with 10% fetal bovine serum (Bet Haemek, Biological Industries, Israel) and 1% penicillin and streptomycin in a 5% CO2-humidified atmosphere.
(§2) Cell proliferation was evaluated using a 2.3-Bis-(2-methoxy-4-nitro-5-sulfophenyl)-2H-tetrazolium-5-carboxyanilide salt (XTT)-based cell proliferation assay kit (Bet Haemek, Biological Industries, Israel). U87 cells were seeded in 96-well plates (5 × 10^3 cells/well) and incubated for 24 h. The medium was then removed, the tested molecules (10^−13-10^−4 M final concentration) were added in FCS-free medium and introduced to the cells for 72 h. After choosing SIXAC as the leading molecule, it was tested in a similar way in CNS-1 cells (SIXAC 1 μM final concentration). XTT solution (50 μl) was added to each well and incubated for 3 h at 37°C. The optical density (OD) of each well was recorded at 450 and 630 nm in a microplate reader (Infinite M200, Tecan, Durham, NC, USA). Cell viability was expressed as the percentage (ODtest–ODblank)/(ODcontrol–ODblank), where ODtest is the optical density of cells exposed to SIXAC treatment, ODcontrol is the optical density of the control sample, and ODblank is the optical density of wells without glioma cells.

CNS-1 glioma cells = assay: CNS-1 glioma cell proliferation (XTT); assay type: cell-based, rat; details: SIXAC 1 μM, 72 h, FCS-free medium, p < 0.03
Procedure: as §1, §2

[1] = test system: thrombin mediated PAR1 activation (pERK/ERK) in CNS-1 cells; assay: ERK activation (pERK/ERK, Western blot) in CNS-1 cells; assay type: cell-based, rat; details: thrombin 1 U/ml + SIXAC 100 nM, 10 min; n = 3; thrombin alone 2.09 ± 0.28, p < 0.03
Procedure: Cells were seeded (1 × 10^6 cells/75 cm^2 flask) and incubated for 24 h. Then the medium was replaced by FCS-free medium for another 24 h. The cells were treated for 10 min with thrombin (1 U/ml), SIXAC (100 nM), a combination of thrombin and SIXAC or a FCS-free medium which was used as a control (n = 3 for each treatment). The cells were washed and lysed in RIPA buffer (containing in mM: 50 TRIS HCl pH 8, 150 NaCl, 1% NP-40, 0.5% sodium deoxycholate, and 0.1% SDS), a protease inhibitor cocktail (Merck Millipore 539134, 1:100), 0.1 mM sodium orthovanadate and 2 mM PMSF. The cells were scraped, collected and centrifuged (16,000g × 20 min) at 4°C. The supernatants were collected, and protein concentration was determined by means of a bicinchoninic acid (BCA) assay. Each sample (20 μg) was separated by SDS-polyacrylamide gel electrophoresis. The proteins were transferred onto nitrocellulose membranes. Membranes were incubated with mouse anti-phosphorylated Extracellular signal-Regulated Kinase (pERK) antibody (1:10,000, M8159, Sigma), for 1.5 h at room temperature (RT) and washed with Tris-buffered saline and 0.1% Tween 20 (TBST). Membranes were then incubated at RT with horseradish peroxidase-conjugated goat anti-mouse antibody (1:10,000, Jackson Immunoresearch Laboratories). […] Protein bands were detected by a peroxidase-based enhanced chemiluminescence (ECL) method. […]

glioma cells (CNS-1) = assay: Wound healing (wound-closure) assay; assay type: cell-based, rat; details: SIXAC 1 μM, 4 h, FCS-free medium; control 10.14 ± 0.67%; p = 0.02
Procedure: The effect of SIXAC on the coordinated movement of the glioma cells was evaluated using a wound healing assay. The cells were seeded in 24-well plates at a density of 5 × 10^4cells/well. Cells were cultures in FCS-free medium for 24 h. A wound was established by scraping using 10 μl pipette tip. Cells were washed twice with warm PBS and fresh FCS-free medium containing 1 μM SIXAC was added. Image acquisition of wound gap closure (%) was carried out following 4 h of incubation using a Nikon Eclipse microscope. Images were analyzed using Fiji software ([37]).

[2] = SIXAC stability over time at 37°C, measured by its inhibition of thrombin; assay type: physicochemical; details: 400 μM SIXAC incubated and sampled, read-out inhibition of 0.05 U/ml thrombin
Procedure: Thrombin activity was assessed using a fluorogenic thrombin substrate (Bachem I-1560, excitation 360 nm; emission 465 nm). As previously described ([19], [36]), the reactions were carried out in a black 96-well microplate. All reactions were performed in Tris buffer (in mM: 150 NaCl, 1 CaCl2, 50 Tris-HCl: pH 8.0) and in the presence of endopeptidase inhibitors (0.1 mg/ml, bestatin hydrochloride—B8385, Sigma; 200 μM prolylendopeptidase inhibitor II, 537011, Merck Millipore) to eliminate the effect of widely abundant CNS endopeptidases on the assay. Known bovine thrombin concentrations (T-4648, Sigma) were used to create a calibration curve for each experiment. IC50 for inhibition of C6 glioma-generated thrombin activity by the molecules was measured in the medium secreted from the cells as described before ([19]). Briefly, C6 cells were seeded (5 × 10^4 cells/ml, 200 μl per well) and allowed to attach the well bottom for 24 h. […] The substrate was added and fluorescence was measured. […] Inhibition of commercial thrombin by SIXAC was measured by applying increasing concentrations of SIXAC (10^−12-10^−5M final concentration) to wells containing 0.05U/ml thrombin (final concentration). […] The sampled SIXAC was added to a constant concentration of thrombin (0.05 U/ml) and thrombin activity was measured. […] All other measures were calculated as a portion of the total activity.

## Cc1ccc(S(=O)(=O)N[C@@H](C)C(=O)N[C@H](C(=O)N[C@@H](CC(C)C)C(=O)N[C@@H](CC(=O)O)C(=O)N2CCC[C@H]2C(=O)N[C@@H](CCCNC(=N)N)C(=O)CCl)[C@@H](C)O)cc1 [SIXAC] (Tos-ATLDPR-CH2Cl)
U87 glioma cells; 10^−5M, FCS-free medium, mean ± SEM, 3AACK vs. 6AACK p < 0.035
  U87 proliferation rate ("inhibit proliferation at a rate of"): 0.2 ± 0.34
U87 glioma cells; 10^−13-10^−4 M, Figure 1D
  U87 proliferation inhibition, ranking among the molecules: found to inhibit the U87 proliferation rate the most
CNS-1 glioma cells
  CNS-1 cell proliferation rate: significantly decrease proliferation rate (p < 0.03); also recorded: significantly decrease the CNS-1 cell proliferation rate
[1]
  pERK/ERK ratio, thrombin with SIXAC: 0.99 ± 0.21
Glioma cells (CNS-1)
  wound-closure percentage: 7.27 ± 0.68%
[2]
  stability: time for which SIXAC was stable and significantly inhibited thrombin: ≥ 18 days
